Experimental data taken from patent US7696212B2, “Xanthine derivatives, the preparation thereof and their use as pharmaceutical compositions” (Boehringer Ingelheim Pharma GmbH and Co. KG, priority 2002, dated 2010).
Counter-ions that a name gives are not always drawn.

Biological target: T1, DPP-IV (Homo sapiens, UniProt P27487)
T1 construct: an extract of human colon carcinoma cell line Caco-2 is used as the DPP IV source; endogenous in cells; host or cells: Caco-2 (human colon carcinoma), differentiated to induce DPP-IV expression; solubilised in Nonidet-P40 buffer
Experiment: DPP-IV assay with extract of Caco-2 cells as DPP IV source, AFC substrate, fluorescence
Assay type: biochemical
Conditions: extract of human colon carcinoma cell line Caco-2 as DPP IV source; substrate 100 μM; 60 minutes at ambient temperature; read-out: DPP IV inhibition IC50
Experimental: The differentiation of the cells in order to induce the DPP-IV expression was carried out as described by Reiher et al. in an article entitled “Increased expression of intestinal cell line Caco-2”, which appeared in Proc. Natl. Acad. Sci. Vol. 90, pages 5757-5761 (1993). The cell extract was obtained from cells solubilised in a buffer (10 mM Tris HCl, 0.15 M NaCl, 0.04 t.i.u. aprotinin, 0.5% Nonidet-P40, pH 8.0) by centrifuging at 35,000 g for 30 minutes at 4° C. (to remove cell debris).
The DPP-IV assay was carried out as follows:
50 μl substrate solution (AFC; AFC is amido-4-trifluoromethylcoumarin), final concentration 100 μM, were placed in black microtitre plates. 20 μl of assay buffer (final concentrations 50 mM Tris HCl pH 7.8, 50 mM NaCl, 1% DMSO) was pipetted in. The reaction was started by adding 30 μl of solubilised Caco-2 protein (final concentration 0.14 μg of protein per well). The test substances to be investigated were typically added prediluted in 20 μl, and the volume of assay buffer was then reduced accordingly. The reaction was carried out at ambient temperature, incubating for 60 minutes. Then the fluorescence was measured in a Victor 1420 Multilabel Counter, the excitation wavelength being 405 nm and the emission wavelength being 535 nm. Blank readings (corresponding to 0% activity) were obtained in mixtures without any Caco-2 protein (volume replaced by assay buffer), control values (corresponding to 100% activity) were obtained in mixtures with no substance added. […]

T1 sequence (P27487 whole entry): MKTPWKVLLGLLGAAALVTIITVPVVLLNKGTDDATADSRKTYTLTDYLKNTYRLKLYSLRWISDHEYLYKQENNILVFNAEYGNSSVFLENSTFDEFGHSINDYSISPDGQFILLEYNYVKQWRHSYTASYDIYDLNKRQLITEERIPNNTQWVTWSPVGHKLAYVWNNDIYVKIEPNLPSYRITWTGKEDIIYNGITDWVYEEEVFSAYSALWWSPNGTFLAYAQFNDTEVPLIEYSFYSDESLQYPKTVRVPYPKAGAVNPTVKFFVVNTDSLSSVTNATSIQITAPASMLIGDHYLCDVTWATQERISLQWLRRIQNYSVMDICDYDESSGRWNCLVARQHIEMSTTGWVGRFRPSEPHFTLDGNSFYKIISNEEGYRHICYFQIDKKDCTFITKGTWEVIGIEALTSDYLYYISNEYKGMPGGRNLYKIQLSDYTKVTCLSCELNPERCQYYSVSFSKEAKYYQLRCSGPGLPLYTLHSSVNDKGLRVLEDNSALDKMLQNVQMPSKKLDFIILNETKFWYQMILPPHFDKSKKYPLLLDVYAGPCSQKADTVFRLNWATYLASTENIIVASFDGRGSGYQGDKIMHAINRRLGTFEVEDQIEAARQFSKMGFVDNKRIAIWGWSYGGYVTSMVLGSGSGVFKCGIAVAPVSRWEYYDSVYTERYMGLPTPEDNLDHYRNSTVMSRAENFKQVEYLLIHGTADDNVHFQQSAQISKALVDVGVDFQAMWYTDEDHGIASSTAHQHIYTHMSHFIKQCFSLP

Compound	IC50 [nM]
CC#CCn1c(N2CCCC(N)C2)nc2c1c(=O)n(CC1=Nc3ccccc3N(C)c3ccccc31)c(=O)n2C (centres unmarked) [1(12), 1-[(5-methyl-5H-dibenzo[b,e][1,4]diazepin-11-yl)methyl]-3-methyl-7-(2-butyn-1-yl)-8-(3-amino-piperidin-1-yl)-xanthine]	14
CC#CCn1c(N2CCC[C@@H](N)C2)nc2c1c(=O)n(Cc1nc3ccccc3c3ccccc13)c(=O)n2C1CC1 [1(20), 1-[(phenanthridin-6-yl)methyl]-3-cyclopropyl-7-(2-butyn-1-yl)-8-((R)-3-amino-piperidin-1-yl)-xanthine]	10
CC#CCn1c(N2CCCC(N)C2)nc2c1c(=O)n(CC1=Nc3ccccc3CN1)c(=O)n2C (centres unmarked) [1(10), 1-[(3,4-dihydro-quinazolin-2-yl)methyl]-3-methyl-7-(2-butyn-1-yl)-8-(3-amino-piperidin-1-yl)-xanthine]	8
CC#CCn1c(N2CCCC(N)C2)nc2c1c(=O)n(CC1=NC(C(F)(F)F)Cc3ccccc31)c(=O)n2C (centres unmarked) [1(7), 1-[(3-trifluoromethyl-3,4-dihydro-isoquinolin-1-yl)methyl]-3-methyl-7-(2-butyn-1-yl)-8-(3-amino-piperidin-1-yl)-xanthine x trifluoroacetic acid]	11
CC#CCn1c(N2CCCC(N)C2)nc2c1c(=O)n(Cc1nc3c(c4ccccc14)CCCC3)c(=O)n2C (centres unmarked) [1(4), 1-[(1,2,3,4-tetrahydro-phenanthridin-6-yl)methyl]-3-methyl-7-(2-butyn-1-yl)-8-(3-amino-piperidin-1-yl)-xanthine x trifluoroacetic acid]	5
C/C=C/Cn1c(N2CCC[C@@H](N)C2)nc2c1c(=O)n(CC1=NCC(=O)Nc3ccccc31)c(=O)n2C [Example 1(2), 1-[(2-oxo-2,3-dihydro-1H-benzo[e][1,4]diazepin-5-yl)methyl]-3-methyl-7-((E)-2-buten-1-yl)-8-((R)-3-amino-piperidin-1-yl)-xanthine]	6
CC#CCn1c(N2CCCC(N)C2)nc2c1c(=O)n(Cc1cn3c(ccc4ccccc43)n1)c(=O)n2C (centres unmarked) [1(32)]	4
CC#CCn1c(N2CCC[C@@H](N)C2)nc2c1c(=O)n(CC1=Nc3cccc4cccc(c34)N1)c(=O)n2C [1(29), 1-[(1H-perimidin-2-yl)methyl]-3-methyl-7-(2-butyn-1-yl)-8-((R)-3-amino-piperidin-1-yl)-xanthine]	3
CC#CCn1c(N2CCCC(N)C2)nc2c1c(=O)n(Cc1ccc3nonc3c1)c(=O)n2C (centres unmarked) [1(15), 1-[(benzo[1,2,5]oxadiazol-5-yl)methyl]-3-methyl-7-(2-butyn-1-yl)-8-(3-amino-piperidin-1-yl)-xanthine]	11
CC#CCn1c(N2CCC[C@@H](N)C2)nc2c1c(=O)n(Cc1nc3cccnc3c3ccccc13)c(=O)n2C [1(28), 1-[(benzo[c][1,5]naphthyridin-6-yl)methyl]-3-methyl-7-(2-butyn-1-yl)-8-((R)-3-amino-piperidin-1-yl)-xanthine]	2
CC#CCn1c(N2CCC[C@@H](N)C2)nc2c1c(=O)n(Cc1cc3nccnc3c3ccccc13)c(=O)n2C [1(30), 1-[(benzo[f]quinoxalin-6-yl)methyl]-3-methyl-7-(2-butyn-1-yl)-8-((R)-3-amino-piperidin-1-yl)-xanthine]	3

More lines, in order of falling IC50, values ahead:

IC50 [nM]	Compound
32	CC#CCn1c(N2CCCC(N)C2)nc2c1c(=O)n(CC1=NC(C)(C(=O)OC)Cc3ccccc31)c(=O)n2C (centres unmarked) [1(1), 1-[(3-methoxycarbonyl-3-methyl-3,4-dihydro-isoquinolin-1-yl]methyl]-3-methyl-7-(2-butyn-1-yl)-8-(3-amino-piperidin-1-yl)-xanthine]
20	CC(C)=CCn1c(N2CCCC(N)C2)nc2c1c(=O)n(/C=C1\NC(=O)c3ccccc31)c(=O)n2C (centres unmarked) [Example 3, 1-[(3-oxo-2,3-dihydro-isoindol-1-ylidene)methyl]-3-methyl-7-(3-methyl-2-buten-1-yl)-8-(3-amino-piperidin-1-yl)-xanthine]
13	CC(C)=CCn1c(N2CCCC(N)C2)nc2c1c(=O)n(CC1=CS(=O)(=O)N(C)c3ccccc31)c(=O)n2C (centres unmarked) [Example 1, 1-[(1-methyl-2,2-dioxo-1H-benzo[c][1,2]thiazin-4-yl)methyl]-3-methyl-7-(3-methyl-2-buten-1-yl)-8-(3-amino-piperidin-1-yl)-xanthine]
7	CC#CCn1c(N2CCCC(N)C2)nc2c1c(=O)n(Cc1nc3ccccc3c3ccnn13)c(=O)n2C (centres unmarked) [1(26), 1-[(pyrazolo[1,5-c]quinazolin-5-yl)methyl]-3-methyl-7-(2-butyn-1-yl)-8-(3-amino-piperidin-1-yl)-xanthine]
7	CC#CCn1c(N2CCCC(N)C2)nc2c1c(=O)n(Cc1nc3ccccc3c3ncccc13)c(=O)n2C (centres unmarked) [1(25), 1-[(benzo[h][1,6]naphthyridin-5-yl)methyl]-3-methyl-7-(2-butyn-1-yl)-8-(3-amino-piperidin-1-yl)-xanthine]
6	CC#CCn1c(N2CCCC(N)C2)nc2c1c(=O)n(CC1=NCCOc3ccccc31)c(=O)n2C (centres unmarked) [Example 2, 1-[(2,3-dihydro-benzo[f][1,4]oxazepin-5-yl)methyl]-3-methyl-7-(2-butyn-1-yl)-8-(3-amino-piperidin-1-yl)-xanthine]
5	CC#CCn1c(N2CCCC(N)C2)nc2c1c(=O)n(Cc1nc3ccccc3c3ccccc13)c(=O)n2C (centres unmarked) [1(3), 1-[(phenanthridin-6-yl)methyl]-3-methyl-7-(2-butyn-1-yl)-8-(3-amino-piperidin-1-yl)-xanthine-dihydrochloride]
4	CC#CCn1c(N2CCC[C@@H](N)C2)nc2c1c(=O)n(Cc1nc3ccccc3c3ccccc13)c(=O)n2C [1(33), 1-[(phenanthridin-6-yl)methyl]-3-methyl-7-(2-butyn-1-yl)-8-((R)-3-amino-piperidin-1-yl)-xanthine]
4	CC#CCn1c(N2CCC[C@@H](N)C2)nc2c1c(=O)n(CC1=Nc3ccccc3Oc3ccccc31)c(=O)n2C [1(8), 1-[(dibenzo[b,f][1,4]oxazepin-11-yl)methyl]-3-methyl-7-(2-butyn-1-yl)-8-((R)-3-amino-piperidin-1-yl)-xanthine]
2	CC#CCn1c(N2CCCC(N)C2)nc2c1c(=O)n(Cc1nc3ncccc3c3ccccc13)c(=O)n2C (centres unmarked) [1(27), 1-[(benzo[c][1,8]naphthyridin-6-yl)methyl]-3-methyl-7-(2-butyn-1-yl)-8-(3-amino-piperidin-1-yl)-xanthine]

Tested on: not given
Experiment: not given
Conditions: not given

melting point [°C]	Compound
200 to 205	CC(C)=CCn1c(N2CCCC(N)C2)nc2c1c(=O)n(CC1=CS(=O)(=O)N(C)c3ccccc31)c(=O)n2C (centres unmarked) [Example 1, 1-[(1-methyl-2,2-dioxo-1H-benzo[c][1,2]thiazin-4-yl)methyl]-3-methyl-7-(3-methyl-2-buten-1-yl)-8-(3-amino-piperidin-1-yl)-xanthine]

Tested on: rats
Experiment: Tolerability after oral administration to rats (behaviour)
Assay type: in vivo, rat
Conditions: 10 mg/kg by oral route

Compound	changes in the animals' behaviour
C/C=C/Cn1c(N2CCC[C@@H](N)C2)nc2c1c(=O)n(CC1=NCC(=O)Nc3ccccc31)c(=O)n2C [Example 1(2), 1-[(2-oxo-2,3-dihydro-1H-benzo[e][1,4]diazepin-5-yl)methyl]-3-methyl-7-((E)-2-buten-1-yl)-8-((R)-3-amino-piperidin-1-yl)-xanthine]	no changes in the animals' behaviour could be detected
